Structures are written as SMILES. Values joined by “and” are separate entries in the source; they are usually repeats but may differ in a detail not shown here. Equal values may be shown once.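 The compound was tested at five concentrations on cells cultured in 96-well plates, with a 48-hour exposure period. Here, GI50 denotes the concentration required for 50% inhibition of growth. The concentration for full growth arrest is given as TGI.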 Where only a bound is given, the exact number is not on record here.

Some test systems named below: 786-0 renal; EKVX NSCLC; IGROV1 ovarian; KM12 colon; M14 melanoma; SF-295 CNS; SK-OV-3 ovarian; SNB-75 CNS; SF-268 CNS; MDA-MB-435.
Test in all cases: inhibition of tumour cell growth, NCI panel, 48 h

With `COc1ccc2nc3c(c(NCCCN(C)C)c2c1)CCCC3`, the TGI came to 28.8 µM with 786-0 renal; 40.5 µM with EKVX NSCLC; 47 µM in the assay with IGROV1 ovarian; 33 µM with KM12 colon; 26.1 µM with M14 melanoma; 29 µM in the assay with SF-295 CNS. For the same molecule, the values for the TGI in the assay on SK-OV-3 ovarian and in the assay on SNB-75 CNS were 58.4 µM and 26.9 µM, respectively.

`CC(=O)NNc1nc(C)c(C(=O)NNC(=O)C(=O)Nc2cccc(C(C)=O)c2)s1`: the TGI was above 100 µM with EKVX NSCLC; 60.7 µM in the assay with IGROV1 ovarian; 57.7 µM with KM12 colon; 54 µM with SF-268 CNS; 66.2 µM in the assay on SF-295 CNS; 32.5 µM in the assay with SK-OV-3 ovarian. In addition, the TGI with SNB-75 CNS stood at 38.9 µM.

Turning to `Cc1ccc(N(O)C(C)(C)C)cc1`, the TGI in the assay on EKVX NSCLC, in the assay with IGROV1 ovarian, with KM12 colon, with SF-268 CNS, with SF-295 CNS and in the assay with SK-OV-3 ovarian was above 100 µM each time. This molecule also registered a TGI in the assay on SNB-75 CNS above 100 µM.

Turning to `CC(C)(O)C1CC[C@]2(C)[C@H]3CC[C@@H]4[C@@]5(C)CCCC(C)(C)[C@@H]5CC[C@@]4(C)[C@]3(C)CC[C@@H]12` (stereo partly specified), the TGI with 786-0 renal, with EKVX NSCLC, in the assay with IGROV1 ovarian, in the assay on KM12 colon, with M14 melanoma and with MDA-MB-435 was above 100 µM throughout. Besides, the TGI in the assay on SF-268 CNS, in the assay with SF-295 CNS and in the assay on SK-OV-3 ovarian was above 100 µM each time.

For `Cc1cn(C2CC(CCCO)C(CO)O2)c(=O)[nH]c1=O` (stereo unspecified), the TGI in the assay on 786-0 renal, with EKVX NSCLC, in the assay with IGROV1 ovarian, with KM12 colon, in the assay on M14 melanoma and in the assay on SF-268 CNS was above 100 µM each time. In addition, the TGI in the assay on SF-295 CNS, in the assay on SK-OV-3 ovarian and in the assay on SNB-75 CNS was above 100 µM in each case. In the assay on SNB-75 CNS, the GI50 is > 100 µM and 30.5 µM.

Consider `COc1cccc(/C(Cl)=C(\C=O)c2cccc(OC)c2)c1`, for which the TGI in the assay on 786-0 renal came to 38 µM; in the assay with EKVX NSCLC, 38.7 µM; in the assay with IGROV1 ovarian, 47.8 µM; in the assay with KM12 colon it was 26.3 µM; in the assay with M14 melanoma, 26.1 µM; in the assay with SF-268 CNS, 21.2 µM. The TGI in the assay with SF-295 CNS was found to be 35.6 µM; with SK-OV-3 ovarian, 41.7 µM; in the assay with SNB-75 CNS, 40.5 µM.

For the molecule `CCCCCCCCCC(=O)N[C@@H](c1ccco1)[C@@H](O)C(=O)O[C@H]1C[C@@]2(O)[C@@H](OC(=O)c3ccccc3)[C@@H]3[C@]4(OC(C)=O)CO[C@@H]4C[C@H](O)[C@@]3(C)C(=O)[C@H](OC(C)=O)C(=C1C)C2(C)C`, the TGI is 7.95 µM in the assay on 786-0 renal; above 50 µM in the assay with EKVX NSCLC; 16.1 µM with IGROV1 ovarian; 8.44 µM in the assay on KM12 colon; 0.0345 µM in the assay with MDA-MB-435; 24.5 µM in the assay with SF-268 CNS. The TGI in the assay on SF-295 CNS is 0.211 µM; in the assay on SK-OV-3 ovarian, above 18.7 µM.

In the case of `CCOC(=O)C(C)Sc1nnc(COc2ccccc2OC)n1-c1ccccc1` (stereo unspecified), the TGI with 786-0 renal, in the assay on EKVX NSCLC, in the assay with IGROV1 ovarian, with KM12 colon, in the assay with M14 melanoma and in the assay on SF-268 CNS was above 100 µM each time. For the same molecule, the TGI in the assay with SF-295 CNS, with SK-OV-3 ovarian and in the assay with SNB-75 CNS was above 100 µM in each case.

For `COC(=O)c1c(CC(Cc2ccc3c(c2)CCCC3)C(=O)OC)ccc2c1CCCC2` (stereo unspecified), the TGI with 786-0 renal was above 100 µM; in the assay on EKVX NSCLC it was 77.1 µM; in the assay with IGROV1 ovarian, above 100 µM; with KM12 colon, above 100 µM; in the assay on M14 melanoma, above 100 µM; with MDA-MB-435 it was above 100 µM. Moreover, the TGI with SF-268 CNS, in the assay on SF-295 CNS and in the assay with SK-OV-3 ovarian was above 100 µM throughout.

As to `CC(C)(C)C(=O)OCC1OC(N=[N+]=[N-])C(OC(=O)C(C)(C)C)C(OC(=O)C(C)(C)C)C1OC(=O)C(C)(C)C` (stereo unspecified), the TGI in the assay with EKVX NSCLC, with IGROV1 ovarian, in the assay on KM12 colon, in the assay with M14 melanoma, in the assay with SF-268 CNS and in the assay with SF-295 CNS was above 100 µM each time. In addition, the TGI in the assay with SK-OV-3 ovarian and in the assay with SNB-75 CNS was above 100 µM throughout.

Turning to `CCC(COC(=O)CC[C@@H](NC(=O)C(C)NC(=O)C(C)OC1C(O)C(CO)OC(OCc2ccccc2)C1NC(C)=O)C(N)=O)NC1c2ccccc2Nc2cccc([N+](=O)[O-])c21` (stereo partly specified), the TGI in the assay with 786-0 renal, in the assay with EKVX NSCLC, with IGROV1 ovarian, in the assay on KM12 colon, with M14 melanoma and in the assay with SF-268 CNS was above 100 µM in each case. For the same molecule, the TGI with SF-295 CNS, with SK-OV-3 ovarian and in the assay with SNB-75 CNS was above 100 µM throughout.

For the molecule `N#C/C(=C\c1ccc([N+](=O)[O-])s1)c1nc2cc(Cl)ccc2s1`, the GI50 with EKVX NSCLC is 1.63 µM; with IGROV1 ovarian, 0.94 µM; in the assay on KM12 colon it was 1.44 µM; in the assay on M14 melanoma, 0.382 µM; in the assay on MDA-MB-435 it was 1.65 µM; in the assay on SF-268 CNS, 2.51 µM. Besides, the TGI in the assay with EKVX NSCLC was 5.82 µM; in the assay with IGROV1 ovarian it was 4.52 µM; in the assay with KM12 colon, 3.84 µM; in the assay with M14 melanoma it was 1.68 µM; in the assay on MDA-MB-435 it was 3.19 µM; with SF-268 CNS, above 100 µM.

`CC12CCCCC1=[N+]([O-])C(C)(C)N2O` (stereo unspecified): the TGI in the assay with 786-0 renal, in the assay on EKVX NSCLC, in the assay on IGROV1 ovarian, with KM12 colon, in the assay on M14 melanoma and in the assay with MDA-MB-435 was above 100 µM in each case. The TGI in the assay on SF-268 CNS, in the assay with SF-295 CNS and with SK-OV-3 ovarian was above 100 µM in each case.

As for `O=C1C=C2CCC[C@H]3OC(=O)C[C@@]23CC1`, the TGI in the assay with 786-0 renal, in the assay with EKVX NSCLC, in the assay with IGROV1 ovarian, with KM12 colon, with M14 melanoma and in the assay on MDA-MB-435 was above 100 µM each time. The TGI with SF-268 CNS, with SF-295 CNS and in the assay on SK-OV-3 ovarian was above 100 µM each time.

As to `O=c1c2ccccc2nc(-c2ccccc2)n1NC(=S)Nc1ccc(Cl)cc1`, the TGI in the assay with 786-0 renal, in the assay on IGROV1 ovarian, in the assay on KM12 colon, with M14 melanoma, in the assay on SF-268 CNS and in the assay on SF-295 CNS was above 100 µM each time. Besides, the TGI in the assay on SK-OV-3 ovarian and in the assay on SNB-75 CNS was above 100 µM throughout.

These data come from PubChem BioAssay (NCI).
